# Reference: the supplement of paper PMC11208160
# Test: recombinant barcode read abundance after kanamycin selection (control-corrected) (log10(CPM+1)); higher = more efficient recombination; sequences stand for … in AGTGCAGAGAAAATCGGCCAGTTTTCTCTGCCTGCAGTCCGCATGCCGT…ATTTATGCAGCGGACTGCCTTTCTCCCAAAGTGATAAACCGGACAGTATCATGGACCGGTTTTCCCGGTAATCCGTATTTGCAAGGTTGGTTTCACT; site = the 11-nt target
# In short: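 Recombination efficiency comes from barcode counts at recombinant junctions, converted to counts per million, averaged and corrected against the control. Values appear as log10(CPM+1). They were obtained from a pooled E. coli screen in which each oligo paired a target with an IS621 bridge RNA target-binding loop, and cells were plated in duplicate on chloramphenicol/ampicillin LB agar or on chloramphenicol/ampicillin/kanamycin with 0.1 mM IPTG.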
sequence,measurement,value
"TAAGAATTGTGGGTTCTAACCTGTTGCCTCA [TAAGAATCTAG_LTGcore_TG_RTGcore_TG] (site TAAGAATCTAG) (LTG core: TG, RTG core: TG)",recombinant barcode read abundance (log10),0.0917
"TAGAGGGATTGGGTTCTAACCTGTTGCGGAG [TAGAGGGCTCC_LTGcore_AT_RTGcore_CT] (site TAGAGGGCTCC) (LTG core: AT, RTG core: CT)",recombinant barcode read abundance (log10),0.147
"TAGAGGGCGTGGGTTCTAACCTGTTGCGGAG [TAGAGGGCTCC_LTGcore_CG_RTGcore_CT] (site TAGAGGGCTCC) (LTG core: CG, RTG core: CT)",recombinant barcode read abundance (log10),2.42
"TAGAGGGGTTGGGTTCTAACCTGTTGCGGAG [TAGAGGGCTCC_LTGcore_GT_RTGcore_CT] (site TAGAGGGCTCC) (LTG core: GT, RTG core: CT)",recombinant barcode read abundance (log10),0.85
"TCGCGACATTGGGTTCTAACCTGTTGCCGAT [TCGCGACCTCG_LTGcore_AT_RTGcore_AT] (site TCGCGACCTCG) (LTG core: AT, RTG core: AT)",recombinant barcode read abundance (log10),0.205
"TCGCGACCCTGGGTTCTAACCTGTTGCCGAG [TCGCGACCTCG_LTGcore_CC_RTGcore_CT] (site TCGCGACCTCG) (LTG core: CC, RTG core: CT)",recombinant barcode read abundance (log10),0.466
"TCGCGACCGTGGGTTCTAACCTGTTGCCGCG [TCGCGACCTCG_LTGcore_CG_RTGcore_CG] (site TCGCGACCTCG) (LTG core: CG, RTG core: CG)",recombinant barcode read abundance (log10),0.0313
"TCGCGACCTTGGGTTCTAACCTGTTGCCGAC [TCGCGACCTCG_LTGcore_CT_RTGcore_GT] (site TCGCGACCTCG) (LTG core: CT, RTG core: GT)",recombinant barcode read abundance (log10),0.201
"TCGCGACCTTGGGTTCTAACCTGTTGCCGGC [TCGCGACCTCG_LTGcore_CT_RTGcore_GC] (site TCGCGACCTCG) (LTG core: CT, RTG core: GC)",recombinant barcode read abundance (log10),0.0211
"TCGCGACCTTGGGTTCTAACCTGTTGCCGTG [TCGCGACCTCG_LTGcore_CT_RTGcore_CA] (site TCGCGACCTCG) (LTG core: CT, RTG core: CA)",recombinant barcode read abundance (log10),0.0363
"TCGCGACGGTGGGTTCTAACCTGTTGCCGAG [TCGCGACCTCG_LTGcore_GG_RTGcore_CT] (site TCGCGACCTCG) (LTG core: GG, RTG core: CT)",recombinant barcode read abundance (log10),0.167
"TCGCGACTGTGGGTTCTAACCTGTTGCCGAG [TCGCGACCTCG_LTGcore_TG_RTGcore_CT] (site TCGCGACCTCG) (LTG core: TG, RTG core: CT)",recombinant barcode read abundance (log10),0.302
"TCGCGACTTTGGGTTCTAACCTGTTGCCGAG [TCGCGACCTCG_LTGcore_TT_RTGcore_CT] (site TCGCGACCTCG) (LTG core: TT, RTG core: CT)",recombinant barcode read abundance (log10),0.282
"TCTACCCAGTGGGTTCTAACCTGTTGCTGCT [TCTACCCCTCA_LTGcore_AG_RTGcore_AG] (site TCTACCCCTCA) (LTG core: AG, RTG core: AG)",recombinant barcode read abundance (log10),0.24
"TCTACCCCCTGGGTTCTAACCTGTTGCTGAG [TCTACCCCTCA_LTGcore_CC_RTGcore_CT] (site TCTACCCCTCA) (LTG core: CC, RTG core: CT)",recombinant barcode read abundance (log10),0.0931
"TCTACCCCTTGGGTTCTAACCTGTTGCTGAG [TCTACCCCTCA_LTGcore_CT_RTGcore_CT] (site TCTACCCCTCA) (LTG core: CT, RTG core: CT)",recombinant barcode read abundance (log10),0.783
"TCTACCCCTTGGGTTCTAACCTGTTGCTGAT [TCTACCCCTCA_LTGcore_CT_RTGcore_AT] (site TCTACCCCTCA) (LTG core: CT, RTG core: AT)",recombinant barcode read abundance (log10),0.131
"TCTACCCCTTGGGTTCTAACCTGTTGCTGGA [TCTACCCCTCA_LTGcore_CT_RTGcore_TC] (site TCTACCCCTCA) (LTG core: CT, RTG core: TC)",recombinant barcode read abundance (log10),0.0313
"TCTACCCCTTGGGTTCTAACCTGTTGCTGTA [TCTACCCCTCA_LTGcore_CT_RTGcore_TA] (site TCTACCCCTCA) (LTG core: CT, RTG core: TA)",recombinant barcode read abundance (log10),0.124
"TCTACCCGCTGGGTTCTAACCTGTTGCTGGC [TCTACCCCTCA_LTGcore_GC_RTGcore_GC] (site TCTACCCCTCA) (LTG core: GC, RTG core: GC)",recombinant barcode read abundance (log10),0.124
"TCTACCCGTTGGGTTCTAACCTGTTGCTGAC [TCTACCCCTCA_LTGcore_GT_RTGcore_GT] (site TCTACCCCTCA) (LTG core: GT, RTG core: GT)",recombinant barcode read abundance (log10),0.0436
"TGATACCAATGGGTTCTAACCTGTTGCGTTT [TGATACCCTAC_LTGcore_AA_RTGcore_AA] (site TGATACCCTAC) (LTG core: AA, RTG core: AA)",recombinant barcode read abundance (log10),0.0446
"TGATACCAGTGGGTTCTAACCTGTTGCGTCT [TGATACCCTAC_LTGcore_AG_RTGcore_AG] (site TGATACCCTAC) (LTG core: AG, RTG core: AG)",recombinant barcode read abundance (log10),0.256
"TGATACCCATGGGTTCTAACCTGTTGCGTTG [TGATACCCTAC_LTGcore_CA_RTGcore_CA] (site TGATACCCTAC) (LTG core: CA, RTG core: CA)",recombinant barcode read abundance (log10),0.0326
"TGATACCCTTGGGTTCTAACCTGTTGCGTAC [TGATACCCTAC_LTGcore_CT_RTGcore_GT] (site TGATACCCTAC) (LTG core: CT, RTG core: GT)",recombinant barcode read abundance (log10),0.08
"TGATACCCTTGGGTTCTAACCTGTTGCGTAG [TGATACCCTAC_LTGcore_CT_RTGcore_CT] (site TGATACCCTAC) (LTG core: CT, RTG core: CT)",recombinant barcode read abundance (log10),2.73
"TGATACCCTTGGGTTCTAACCTGTTGCGTCA [TGATACCCTAC_LTGcore_CT_RTGcore_TG] (site TGATACCCTAC) (LTG core: CT, RTG core: TG)",recombinant barcode read abundance (log10),0.796
"TGATACCCTTGGGTTCTAACCTGTTGCGTTA [TGATACCCTAC_LTGcore_CT_RTGcore_TA] (site TGATACCCTAC) (LTG core: CT, RTG core: TA)",recombinant barcode read abundance (log10),0.0153
"TGATACCGATGGGTTCTAACCTGTTGCGTTC [TGATACCCTAC_LTGcore_GA_RTGcore_GA] (site TGATACCCTAC) (LTG core: GA, RTG core: GA)",recombinant barcode read abundance (log10),0.269
"TGATACCGGTGGGTTCTAACCTGTTGCGTAG [TGATACCCTAC_LTGcore_GG_RTGcore_CT] (site TGATACCCTAC) (LTG core: GG, RTG core: CT)",recombinant barcode read abundance (log10),0.108
"TGATACCTGTGGGTTCTAACCTGTTGCGTCA [TGATACCCTAC_LTGcore_TG_RTGcore_TG] (site TGATACCCTAC) (LTG core: TG, RTG core: TG)",recombinant barcode read abundance (log10),0.256
"TGTATTCAGTGGGTTCTAACCTGTTGCCTCT [TGTATTCCTAG_LTGcore_AG_RTGcore_AG] (site TGTATTCCTAG) (LTG core: AG, RTG core: AG)",recombinant barcode read abundance (log10),0.00767
"TGTATTCATTGGGTTCTAACCTGTTGCCTAG [TGTATTCCTAG_LTGcore_AT_RTGcore_CT] (site TGTATTCCTAG) (LTG core: AT, RTG core: CT)",recombinant barcode read abundance (log10),0.0853
"TGTATTCCATGGGTTCTAACCTGTTGCCTAG [TGTATTCCTAG_LTGcore_CA_RTGcore_CT] (site TGTATTCCTAG) (LTG core: CA, RTG core: CT)",recombinant barcode read abundance (log10),0.0466
